According to patent publication US11065235B2, “Substituted methanopyrido [2, 1-a] isoindolones as mAChR modulators for treating various associated pathophysiological conditions and process for preparation thereof” (COUNCIL OF SCIENTIFIC & INDUSTRIAL RESEARCH, priority 2017, dated 2021):

Legend:
Format in all cases: cell-based
human M5R = target: T1, human M5R (Homo sapiens, UniProt P08912); assay: NFAT-luciferase assay, M5
T1 construct: expressed in transfected cells; host or cells: HEK-293T
T1 sequence (P08912 1-532): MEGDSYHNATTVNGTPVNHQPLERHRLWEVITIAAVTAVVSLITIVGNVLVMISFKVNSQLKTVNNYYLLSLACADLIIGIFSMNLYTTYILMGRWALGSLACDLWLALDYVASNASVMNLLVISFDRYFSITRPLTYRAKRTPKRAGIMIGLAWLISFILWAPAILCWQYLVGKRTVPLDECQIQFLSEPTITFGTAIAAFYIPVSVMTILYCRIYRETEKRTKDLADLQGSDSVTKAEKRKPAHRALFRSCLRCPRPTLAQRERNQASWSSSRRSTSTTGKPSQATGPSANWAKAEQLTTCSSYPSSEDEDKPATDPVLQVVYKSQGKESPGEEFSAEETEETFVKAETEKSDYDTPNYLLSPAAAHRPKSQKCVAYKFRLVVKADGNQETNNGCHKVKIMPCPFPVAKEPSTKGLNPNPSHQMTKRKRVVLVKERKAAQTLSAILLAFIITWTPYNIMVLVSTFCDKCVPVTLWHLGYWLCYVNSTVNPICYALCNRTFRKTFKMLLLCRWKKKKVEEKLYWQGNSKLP
Description: (§1) To measure the agonist or antagonist activity at M1, M3 and M5 muscarinic receptor, NFAT-luciferase activity was performed in HEK-293T cells (procured from NCCS, Pune) by co-transfecting with human M1R or M3R or M5R and pGL4.30 (luc2P/NFAT-RE/Hygro; Promega Corp,) in 96 well format. The transfected cells were incubated at 37° C. in tissue culture incubator with 5% CO2 for 14-16 hours. To determine the if the test compounds are agonist, the transfected cells were treated with either 20 μl/well of carbamoyl choline (as a positive control) at various concentrations (10000 nM to 0.01 nM) or with various concentrations of test compounds (in triplicates) and were further incubated for 12 hrs in a humidified tissue culture incubator at 37° C. with 5% CO2. For antagonist mode assay, test compound incubation was followed by addition of 20 μl of 7 μM carbamoylcholine (agonist) to the plate. Following 12-14 hrs of drug treatment, media from the plate was aspirated and 100 μl of sodium luciferin solution (10 mg/ml) was added and luminescence per well was recorded using luminescence plate reader (BMG Labtech).

human M3R = target: T2, human M3R (Homo sapiens, UniProt P20309); assay: NFAT-luciferase assay, M3
T2 construct: expressed in transfected cells; host or cells: HEK-293T
T2 sequence (P20309 whole entry): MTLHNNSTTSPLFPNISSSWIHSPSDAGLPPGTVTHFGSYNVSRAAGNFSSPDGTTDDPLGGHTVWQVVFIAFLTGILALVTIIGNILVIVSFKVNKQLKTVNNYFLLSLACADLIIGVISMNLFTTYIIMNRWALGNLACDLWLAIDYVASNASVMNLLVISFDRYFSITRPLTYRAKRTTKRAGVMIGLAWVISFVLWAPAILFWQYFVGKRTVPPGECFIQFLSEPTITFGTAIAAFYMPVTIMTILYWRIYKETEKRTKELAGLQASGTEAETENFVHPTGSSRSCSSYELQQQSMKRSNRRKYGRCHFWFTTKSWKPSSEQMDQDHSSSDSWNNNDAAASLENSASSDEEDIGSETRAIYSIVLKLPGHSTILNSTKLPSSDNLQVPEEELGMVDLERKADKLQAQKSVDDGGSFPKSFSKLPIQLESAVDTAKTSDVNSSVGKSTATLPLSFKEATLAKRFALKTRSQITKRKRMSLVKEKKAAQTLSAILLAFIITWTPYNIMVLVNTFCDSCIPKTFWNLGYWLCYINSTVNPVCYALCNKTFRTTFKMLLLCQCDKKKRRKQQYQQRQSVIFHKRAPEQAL
Description: as §1

human M1R = target: T3, human M1R (Homo sapiens, UniProt P11229); assay: NFAT-luciferase assay, M1
T3 construct: expressed in transfected cells; host or cells: HEK-293T
T3 sequence (P11229 1-460): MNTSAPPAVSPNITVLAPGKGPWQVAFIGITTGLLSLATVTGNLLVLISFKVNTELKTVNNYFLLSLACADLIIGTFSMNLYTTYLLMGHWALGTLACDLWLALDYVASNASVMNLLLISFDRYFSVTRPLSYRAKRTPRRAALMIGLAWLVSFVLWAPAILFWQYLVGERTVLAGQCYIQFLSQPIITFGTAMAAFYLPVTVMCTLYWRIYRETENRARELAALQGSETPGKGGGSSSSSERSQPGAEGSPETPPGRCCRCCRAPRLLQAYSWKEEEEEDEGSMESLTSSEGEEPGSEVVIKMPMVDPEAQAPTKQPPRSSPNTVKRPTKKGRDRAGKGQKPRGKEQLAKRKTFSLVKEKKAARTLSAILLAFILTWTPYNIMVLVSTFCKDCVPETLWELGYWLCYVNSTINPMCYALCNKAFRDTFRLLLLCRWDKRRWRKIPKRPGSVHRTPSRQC
Description: as §1

antagonist activity at M5 receptor (in words) (human M5R): very modest activity
IC50 (human M5R; M5, antagonist, N.A. = not active, read-out: pIC50/pEC50 (Mean ± SEM) M5 (converted)): 269 nM
antagonist activity at M3 receptor (in words) (human M3R): very modest activity
antagonist activity at M1 receptor (in words) (human M1R): very modest activity
IC50 (human M1R; M1, antagonist, N.A. = not active, read-out: pIC50/pEC50 (Mean ± SEM) M1 (converted)): 129 nM
SMILES: O=C1[C@@H]2c3ccccc3[C@H]3N2[C@@H]2CCCC(OS(=O)(=O)C(F)(F)F)=C2C[C@@]13S(=O)(=O)c1ccccc1 [RG-12, (6S,6aR,11S,12aR)-13-oxo-6-(phenylsulfonyl)-1,2,3,5,6,6a,11,12a-octahydro-6,11-methanoisoindolo[2,1-a]quinolin-4-yl trifluoromethanesulfonate]
selectivity among muscarinic receptors (in words) (human M3R; M1, M3 and M5 antagonist profiling): nonselective muscarinic receptor antagonist
